Data from US11396502B2, “Substituted heterocyclic derivatives as PI3K inhibitors” (Incyte Corporation, priority 2018, dated 2022).
Counter-ions that a name gives are not always drawn. Like-named read-outs stand apart in the source and are kept apart here.

Columns and labels:
PI3Kδ (p110δ/p85α) = PI3Kδ (p110δ/p85α) (Homo sapiens (Human), UniProt O00329); assay: PI3Kδ scintillation proximity assay; format: biochemical; conditions: recombinant human PI3Kδ 3.4 nM, 20 μM PIP2, 2 μM ATP, 120 min, room temperature
PI3Kδ (p110δ/p85α), sequence (O00329 whole entry): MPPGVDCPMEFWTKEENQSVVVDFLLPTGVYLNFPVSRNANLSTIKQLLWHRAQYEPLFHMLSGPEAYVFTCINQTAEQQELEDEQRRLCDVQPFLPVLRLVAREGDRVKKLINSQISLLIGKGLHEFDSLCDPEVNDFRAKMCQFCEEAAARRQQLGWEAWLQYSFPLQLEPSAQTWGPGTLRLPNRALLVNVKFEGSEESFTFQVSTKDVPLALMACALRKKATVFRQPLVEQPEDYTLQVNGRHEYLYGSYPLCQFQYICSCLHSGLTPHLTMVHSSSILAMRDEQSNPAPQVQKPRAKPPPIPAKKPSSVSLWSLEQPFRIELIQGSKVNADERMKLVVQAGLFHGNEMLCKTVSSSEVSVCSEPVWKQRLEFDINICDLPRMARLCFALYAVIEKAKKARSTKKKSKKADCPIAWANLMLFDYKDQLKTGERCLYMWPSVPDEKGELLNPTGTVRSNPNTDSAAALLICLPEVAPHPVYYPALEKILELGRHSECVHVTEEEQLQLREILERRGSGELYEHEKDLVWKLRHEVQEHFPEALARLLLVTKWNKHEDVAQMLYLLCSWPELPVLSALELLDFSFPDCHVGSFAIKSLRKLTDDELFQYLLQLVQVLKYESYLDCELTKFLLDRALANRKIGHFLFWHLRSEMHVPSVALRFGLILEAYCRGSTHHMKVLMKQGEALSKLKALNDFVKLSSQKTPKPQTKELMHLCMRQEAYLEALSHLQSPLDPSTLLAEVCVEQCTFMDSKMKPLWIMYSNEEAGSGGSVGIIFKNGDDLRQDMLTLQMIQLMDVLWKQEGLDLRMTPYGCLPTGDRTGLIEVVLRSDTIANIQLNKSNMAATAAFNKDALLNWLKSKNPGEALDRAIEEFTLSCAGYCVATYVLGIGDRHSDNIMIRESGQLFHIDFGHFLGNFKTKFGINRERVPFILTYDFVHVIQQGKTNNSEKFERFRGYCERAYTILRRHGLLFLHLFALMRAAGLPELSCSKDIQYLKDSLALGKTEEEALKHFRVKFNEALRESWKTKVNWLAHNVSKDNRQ
PI3Kδ (p110δ/p85α), sequence (P27986 whole entry partner): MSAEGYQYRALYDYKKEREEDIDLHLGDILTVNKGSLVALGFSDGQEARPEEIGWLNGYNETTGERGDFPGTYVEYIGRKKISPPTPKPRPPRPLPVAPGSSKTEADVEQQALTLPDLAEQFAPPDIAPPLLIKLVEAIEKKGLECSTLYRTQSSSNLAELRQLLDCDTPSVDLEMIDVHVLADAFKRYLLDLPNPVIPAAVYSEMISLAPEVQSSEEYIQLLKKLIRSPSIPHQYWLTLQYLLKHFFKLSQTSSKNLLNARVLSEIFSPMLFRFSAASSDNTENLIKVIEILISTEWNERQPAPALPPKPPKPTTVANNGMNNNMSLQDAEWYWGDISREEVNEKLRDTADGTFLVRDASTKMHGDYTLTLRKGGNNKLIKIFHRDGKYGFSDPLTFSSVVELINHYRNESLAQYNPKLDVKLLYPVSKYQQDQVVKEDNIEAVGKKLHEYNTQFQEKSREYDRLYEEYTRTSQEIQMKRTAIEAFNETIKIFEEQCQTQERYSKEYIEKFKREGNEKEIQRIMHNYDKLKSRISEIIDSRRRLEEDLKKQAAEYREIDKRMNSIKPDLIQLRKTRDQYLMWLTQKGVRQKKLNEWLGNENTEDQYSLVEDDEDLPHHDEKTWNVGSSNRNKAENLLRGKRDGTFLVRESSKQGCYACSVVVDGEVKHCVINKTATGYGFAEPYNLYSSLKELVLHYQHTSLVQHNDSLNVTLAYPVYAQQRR
Excerpt: Example C. PI3Kδ Scintillation Proximity Assay Materials: [γ-^33P]ATP (10 mCi/mL) and Wheat Germ Agglutinin (WGA) YSi SPA Scintillation Beads was purchased from Perkin Elmer (Waltham, Mass.). Lipid kinase substrate, D-myo-Phosphatidylinositol 4,5-bisphosphate (PtdIns(4,5)P2)D (+)-sn-1,2-di-O-octanoylglyceryl, 3-O-phospho linked (PIP2), CAS 204858-53-7, was purchased from Echelon Biosciences (Salt Lake City, Utah). PI3Kδ (p110δ/p85α) Recombinant Human Protein was purchased from Eurofins (St Charles, Mo.). ATP, MgCl2, DTT, EDTA, MOPS and CHAPS were purchased from Sigma Aldrich (St. Louis, Mo.). The kinase reaction was conducted in polystyrene 384-well Greiner Bio-one white plate from Thermo Fisher Scientific in a final volume of 25 μL. Inhibitors were first diluted serially in DMSO and added to the plate wells before the addition of other reaction components. The final concentration of DMSO in the assay was 2%. The PI3Kδ assay was carried out at room temperature in 20 mM MOPS, pH 6.7, 10 mM MgCl2, 5 mM DTT and CHAPS 0.03%. Reactions were initiated by the addition of ATP, the final reaction mixture consisted of 20 μM PIP2, 2 μM ATP, 0.5 μCi [γ-^33P] ATP, 3.4 nM PI3Kδ. Reactions were incubated for 120 min and terminated by the addition of 40 μL SPA beads suspended in quench buffer: 163 mM potassium phosphate pH 7.8, 20% glycerol, 25 mM EDTA. The final concentration of SPA beads is 1.0 mg/mL. After the plate sealing, plates were shaken overnight at room temperature and centrifuged at 1500 rpm for 10 min, the radioactivity of the product was determined by scintillation counting on Topcount (PerkinElmer). IC50 determination was performed by fitting the curve of percent of the solvent control activity versus the log of the inhibitor concentration using the GraphPad Prism 6.0 software.

PI3Kγ (p110γ) = PI3Kγ (p110γ) (Homo sapiens (Human), UniProt P48736); assay: PI3K-γ scintillation proximity assay; format: biochemical; conditions: recombinant human PI3Kγ 13 nM, 20 μM PIP2, 2 μM ATP, 120 min, room temperature
PI3Kγ (p110γ), sequence (P48736 whole entry): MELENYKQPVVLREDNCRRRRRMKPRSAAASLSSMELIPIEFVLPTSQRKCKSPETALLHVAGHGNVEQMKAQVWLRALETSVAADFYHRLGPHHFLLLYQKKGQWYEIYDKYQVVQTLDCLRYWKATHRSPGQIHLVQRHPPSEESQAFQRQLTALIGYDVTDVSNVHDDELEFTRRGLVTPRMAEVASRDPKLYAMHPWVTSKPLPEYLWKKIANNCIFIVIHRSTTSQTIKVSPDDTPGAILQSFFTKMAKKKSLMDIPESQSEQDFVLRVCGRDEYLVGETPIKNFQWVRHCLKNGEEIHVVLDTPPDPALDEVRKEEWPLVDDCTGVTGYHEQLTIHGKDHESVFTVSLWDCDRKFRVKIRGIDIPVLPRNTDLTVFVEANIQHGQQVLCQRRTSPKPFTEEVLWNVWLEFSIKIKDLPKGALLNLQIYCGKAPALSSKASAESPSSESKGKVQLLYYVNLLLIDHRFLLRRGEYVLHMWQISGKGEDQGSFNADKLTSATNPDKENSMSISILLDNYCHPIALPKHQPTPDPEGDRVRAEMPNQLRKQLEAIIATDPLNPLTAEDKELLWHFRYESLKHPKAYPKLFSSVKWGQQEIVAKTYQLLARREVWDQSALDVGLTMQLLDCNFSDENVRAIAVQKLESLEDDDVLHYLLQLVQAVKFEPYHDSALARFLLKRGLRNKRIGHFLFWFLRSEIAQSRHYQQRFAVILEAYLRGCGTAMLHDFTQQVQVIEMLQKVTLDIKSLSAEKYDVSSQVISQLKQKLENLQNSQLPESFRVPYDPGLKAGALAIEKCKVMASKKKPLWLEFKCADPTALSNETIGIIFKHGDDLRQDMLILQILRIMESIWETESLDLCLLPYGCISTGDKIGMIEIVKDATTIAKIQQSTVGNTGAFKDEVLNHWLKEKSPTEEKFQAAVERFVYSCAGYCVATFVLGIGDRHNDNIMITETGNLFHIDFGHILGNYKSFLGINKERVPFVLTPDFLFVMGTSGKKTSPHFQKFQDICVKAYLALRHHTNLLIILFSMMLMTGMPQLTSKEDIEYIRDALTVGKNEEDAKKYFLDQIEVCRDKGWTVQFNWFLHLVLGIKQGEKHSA
Excerpt: Example B. PI3K-γ Scintillation Proximity Assay Materials: [γ-^33P]ATP (10 mCi/mL) and Wheat Germ Agglutinin (WGA) YSi SPA Scintillation Beads was purchased from Perkin Elmer (Waltham, Mass.). Lipid kinase substrate, D-myo-Phosphatidylinositol 4,5-bisphosphate (PtdIns(4,5)P2)D (+)-sn-1,2-di-O-octanoylglyceryl, 3-O-phospho linked (PIP2), CAS 204858-53-7, was purchased from Echelon Biosciences (Salt Lake City, Utah). PI3Kγ (p110γ) Recombinant Human Protein was purchased from Life technology (Grand Island, N.Y.). ATP, MgCl2, DTT, EDTA, MOPS and CHAPS were purchased from Sigma Aldrich (St. Louis, Mo.). The kinase reaction was conducted in polystyrene 384-well Greiner Bio-one white plate from Thermo Fisher Scientific in a final volume of 25 μL. Inhibitors were first diluted serially in DMSO and added to the plate wells before the addition of other reaction components. The final concentration of DMSO in the assay was 2%. The PI3Kγ assay was carried out at room temperature in 20 mM MOPS, pH 6.7, 10 mM MgCl2, 5 mM DTT and CHAPS 0.03%. Reactions were initiated by the addition of ATP, the final reaction mixture consisted of 20 μM PIP2, 2 μM ATP, 0.5 μCi [γ-^33P] ATP, 13 nM PI3Kγ. Reactions were incubated for 120 min and terminated by the addition of 40 μL SPA beads suspended in quench buffer: 163 mM potassium phosphate pH 7.8, 20% glycerol, 25 mM EDTA. The final concentration of SPA beads is 1.0 mg/mL. After the plate sealing, plates were shaken overnight at room temperature and centrifuged at 1500 rpm for 10 min, the radioactivity of the product was determined by scintillation counting on Topcount (Perkin-Elmer). IC50 determination was performed by fitting the curve of percent of the solvent control activity versus the log of the inhibitor concentration using the GraphPad Prism 6.0 software.

[1] = tested on: Phosphorylated Ribosomal Protein S6 (RPS6) in THP-1 cells; assay: THP-1 RPS6 ELISA assay; format: cell-based, Human; conditions: 2 hours compound, 10 nM MCP-1 for 15 minutes, Phospho-RPS6 ELISA, read-out: PI3Kγ_THP1_RPS6_ELISA IC50
Method: Example A. THP-1 RPS6 ELISA Assay
To measure the Phosphorylated Ribosomal Protein S6 (RPS6) in cell lysates, THP-1 cells (Human Acute Monocytic Leukemia) are purchased from ATCC (Manassas, Va.) and maintained in RPMI with 10% FBS (Gibco/Life Technologies, Carlsbad, Calif.). For the assay, THP-1 cells are serum starved overnight in RPMI, then plated in RPMI (2×10^5 cells/well in 90 μL) into 96-well flat-bottom tissue culture treated plates (Corning, Corning, N.Y.), in the presence or absence of a concentration range of test compounds. Covered plates are incubated for 2 hours at 37° C., 5% CO2 then treated with or without 10 nM MCP-1 (MYBioSource, San Diego, Calif.) for 15 minutes at 37° C., 5% CO2. Plates are centrifuged at 1600 RPM and supernatants are removed. Cells are lysed in Lysis Buffer (Cell Signaling, Danvers, Mass.) with Protease Inhibitor (Calbiochem/EMD, Germany), PMSF (Sigma, St Louis Mo.), HALTS (Thermo Fisher, Rockford, Ill.) for 30 min on wet ice. Cell lysates are frozen at −80° C. before testing. The lysates are tested in the Human/Mouse/Rat Phospho-RPS6 ELISA (R&D Systems, Inc. Minn, Minn.). The plate is measured using a microplate reader (SpectraMax M5—Molecular Devices, LLC Sunnyvale, Calif.) set to 450 nm with a wavelength correction of 540. IC50 determination is performed by fitting the curve of inhibitor percent inhibition versus the log of the inhibitor concentration using the GraphPad Prism 5.0 software.

[2] = Homo sapiens, THP-1, serum starved THP-1 cells

SMILES: Cc1[nH]c(-c2cc(-c3cc4c(c(S(C)(=O)=O)c3)C(=O)N([C@@H](C)C3CC3)C4)ccn2)nc1C(=O)N(C)C(C)C [Example 7t, (S)-2-(4-(2-(1-Cyclopropylethyl)-7-(methylsulfonyl)-1-oxoisoindolin-5-yl)pyridin-2-yl)-N-isopropyl-N,4-dimethyl-1H-imidazole-5-carboxamide, trifluoroacetate salt]
- IC50 (PI3Kδ (p110δ/p85α)): 500 to 2000 nM
- IC50 (PI3Kγ (p110γ)): < 100 nM
- IC50 [1, 2]: 100 to 500 nM

SMILES: CN=S(C)(=O)c1cc(-c2ccnc(-c3nc(C)c(C)[nH]3)c2)cc2c1C(=O)N([C@@H](C)C1CC1)C2 (stereo partly drawn) [Example 23, 2-((S)-1-Cyclopropylethyl)-5-(2-(4,5-dimethyl-1H-imidazol-2-yl)pyridin-4-yl)-7-(N,S-dimethylsulfonimidoyl)isoindolin-1-one]
- IC50 (PI3Kδ (p110δ/p85α)): 500 to 2000 nM
- IC50 (PI3Kγ (p110γ)): < 100 nM
- IC50 [1, 2]: 100 to 500 nM

SMILES: Cc1[nH]c(-c2cc(-c3ccc4c(c3)CN([C@@H](C)C3CC3)C4=O)ccn2)nc1C(=O)N(C)C [Example 5, (S)-2-(4-(2-(1-Cyclopropylethyl)-1-oxoisoindolin-5-yl)pyridin-2-yl)-N,N,5-trimethyl-1H-imidazole-4-carboxamide trifluoroacetate salt]
- IC50 (PI3Kδ (p110δ/p85α)): > 2000 nM
- IC50 (PI3Kγ (p110γ)): < 100 nM
- IC50 [1, 2]: > 1000 nM

SMILES: Cc1[nH]c(-c2cc(-c3cc4c(c(S(C)(=O)=O)c3)C(=O)N([C@@H](C)C3CC3)C4)ccn2)nc1C(=O)N1CC2(COC2)C1 [Example 7p, (S)-2-(1-Cyclopropylethyl)-5-(2-(4-methyl-5-(2-oxa-6-azaspiro[3.3]heptane-6-carbonyl)-1H-imidazol-2-yl)pyridin-4-yl)-7-(methylsulfonyl)isoindolin-1-one, trifluoroacetate salt]
- IC50 (PI3Kδ (p110δ/p85α)): 500 to 2000 nM
- IC50 (PI3Kγ (p110γ)): < 100 nM
- IC50 [1, 2]: 100 to 500 nM

SMILES: CNC(=O)c1nc(-c2cc(-c3ccc4c(c3)CN([C@@H](C)C3CC3)C4=O)ccn2)[nH]c1C [Example 6, (S)-2-(4-(2-(1-Cyclopropylethyl)-1-oxoisoindolin-5-yl)pyridin-2-yl)-N,5-dimethyl-1H-imidazole-4-carboxamide trifluoroacetate salt]
- IC50 (PI3Kδ (p110δ/p85α)): > 2000 nM
- IC50 (PI3Kγ (p110γ)): < 100 nM
- IC50 [1, 2]: > 1000 nM

SMILES: Cc1[nH]c(-c2cc(-c3cc4c(c(S(C)(=O)=O)c3)C(=O)N([C@@H](C)C3CC3)C4)ccn2)nc1C(N)=O [Example 7q, (S)-2-(4-(2-(1-Cyclopropylethyl)-7-(methylsulfonyl)-1-oxoisoindolin-5-yl)pyridin-2-yl)-4-methyl-1H-imidazole-5-carboxamide, trifluoroacetate salt]
- IC50 (PI3Kδ (p110δ/p85α)): 500 to 2000 nM
- IC50 (PI3Kγ (p110γ)): < 100 nM
- IC50 [1, 2]: > 1000 nM

SMILES: Cc1nc(-c2cc(-c3cc4c(c(S(C)(=N)=O)c3)C(=O)N([C@@H](C)C3CC3)C4)ccn2)[nH]c1C (stereo partly drawn) [Example 20, 2-((S)-1-Cyclopropylethyl)-5-(2-(4,5-dimethyl-1H-imidazol-2-yl)pyridin-4-yl)-7-(S-methylsulfonimidoyl)isoindolin-1-one, Trifluoroacetate Salt]
- IC50 (PI3Kδ (p110δ/p85α)): > 2000 nM
- IC50 (PI3Kγ (p110γ)): < 100 nM
- IC50 ([1]; serum starved THP-1 cells, Trifluoroacetate Salt): 100 to 500 nM

SMILES: Cc1cc(-c2cc(-c3cc4c(c(S(C)(=O)=O)c3)C(=O)N([C@@H](C)C3CC3)C4)ccn2)[nH]n1 [Example 14, (S)-2-(1-Cyclopropylethyl)-5-(2-(3-methyl-1H-pyrazol-5-yl)pyridin-4-yl)-7-(methylsulfonyl)isoindolin-1-one, Trifluoroacetate Salt]
- IC50 (PI3Kδ (p110δ/p85α)): > 2000 nM
- IC50 (PI3Kγ (p110γ)): < 100 nM
- IC50 [1, 2]: > 1000 nM

SMILES: Cc1[nH]c(-c2cc(-c3cc4c(c(S(C)(=O)=O)c3)C(=O)N([C@@H](C)C3CC3)C4)ccn2)nc1C(=O)NC1CCOC1 (mixture of isomers) [Example 7n, 2-(4-(2-((S)-1-Cyclopropylethyl)-7-(methylsulfonyl)-1-oxoisoindolin-5-yl)pyridin-2-yl)-4-methyl-N-(tetrahydrofuran-3-yl)-1H-imidazole-5-carboxamide, trifluoroacetate salt (mixture of two diastereomers)]
- IC50 (PI3Kδ (p110δ/p85α)): 100 to 500 nM
- IC50 (PI3Kγ (p110γ)): < 100 nM
- IC50 [1, 2]: 100 to 500 nM

SMILES: Cc1[nH]c(-c2cc(-c3ccc4c(c3)CN([C@@H](C)C3CC3)C4=O)ccn2)nc1C(=O)NC(C)C [Example 3, (S)-2-(4-(2-(1-Cyclopropylethyl)-1-oxoisoindolin-5-yl)pyridin-2-yl)-N-isopropyl-5-methyl-1H-imidazole-4-carboxamide Trifluoroacetate Salt]
- IC50 (PI3Kδ (p110δ/p85α)): 500 to 2000 nM
- IC50 (PI3Kγ (p110γ)): < 100 nM
- IC50 [1, 2]: > 1000 nM

SMILES: Cc1[nH]c(-c2cc(-c3cc4c(c(S(C)(=O)=O)c3)C(=O)N([C@@H](C)C3CC3)C4)ccn2)nc1C(=O)NC1CCOCC1 [Example 7b, (S)-2-(4-(2-(1-Cyclopropylethyl)-7-(methylsulfonyl)-1-oxoisoindolin-5-yl)pyridin-2-yl)-4-methyl-N-(tetrahydro-2H-pyran-4-yl)-1H-imidazole-5-carboxamide, trifluoroacetate salt]
- IC50 (PI3Kδ (p110δ/p85α)): 100 to 500 nM
- IC50 (PI3Kγ (p110γ)): < 100 nM
- IC50 [1, 2]: 500 to 1000 nM

SMILES: CN=S(C)(=O)c1cc(-c2ccnc(-c3nc(C)c(C)[nH]3)c2)cc2c1C(=O)N([C@@H](C)C1CC1)C2 (single isomer, unassigned) [Example 25]
- IC50 (PI3Kδ (p110δ/p85α)): 500 to 2000 nM
- IC50 (PI3Kγ (p110γ)): < 100 nM
- IC50 [1, 2]: 500 to 1000 nM

SMILES: C[C@@H](C1CC1)N1Cc2cc(-c3ccnc(-c4ncc[nH]4)c3)cc(S(C)(=O)=O)c2C1=O [Example 17, (S)-5-(2-(1H-Imidazol-2-yl)pyridin-4-yl)-2-(1-cyclopropylethyl)-7-(methylsulfonyl)isoindolin-1-one, trifluoroacetate salt]
- IC50 (PI3Kδ (p110δ/p85α)): > 2000 nM
- IC50 (PI3Kγ (p110γ)): < 100 nM
- IC50 [1, 2]: 500 to 1000 nM
